Results: patent US12577231B2, “Androgen receptor PROTACS” (GlaxoSmithKline Intellectual Property Development Limited, priority 2023, dated 2026)
Where a chain is given by its changes, count along the chain named.

What was measured:
[1] = target: T1, Androgen Receptor, LNCaP (AR T878A) (Homo sapiens, UniProt P10275, T878A); assay: Androgen Receptor Degradation-Imaging Assay, LNCaP cell line; assay type: cell-based; settings: 16 hours treatment, maximum observed degradation
T1 construct: endogenous in cells; host or cells: LNCaP
T1 sequence (P10275 1-920 T878A): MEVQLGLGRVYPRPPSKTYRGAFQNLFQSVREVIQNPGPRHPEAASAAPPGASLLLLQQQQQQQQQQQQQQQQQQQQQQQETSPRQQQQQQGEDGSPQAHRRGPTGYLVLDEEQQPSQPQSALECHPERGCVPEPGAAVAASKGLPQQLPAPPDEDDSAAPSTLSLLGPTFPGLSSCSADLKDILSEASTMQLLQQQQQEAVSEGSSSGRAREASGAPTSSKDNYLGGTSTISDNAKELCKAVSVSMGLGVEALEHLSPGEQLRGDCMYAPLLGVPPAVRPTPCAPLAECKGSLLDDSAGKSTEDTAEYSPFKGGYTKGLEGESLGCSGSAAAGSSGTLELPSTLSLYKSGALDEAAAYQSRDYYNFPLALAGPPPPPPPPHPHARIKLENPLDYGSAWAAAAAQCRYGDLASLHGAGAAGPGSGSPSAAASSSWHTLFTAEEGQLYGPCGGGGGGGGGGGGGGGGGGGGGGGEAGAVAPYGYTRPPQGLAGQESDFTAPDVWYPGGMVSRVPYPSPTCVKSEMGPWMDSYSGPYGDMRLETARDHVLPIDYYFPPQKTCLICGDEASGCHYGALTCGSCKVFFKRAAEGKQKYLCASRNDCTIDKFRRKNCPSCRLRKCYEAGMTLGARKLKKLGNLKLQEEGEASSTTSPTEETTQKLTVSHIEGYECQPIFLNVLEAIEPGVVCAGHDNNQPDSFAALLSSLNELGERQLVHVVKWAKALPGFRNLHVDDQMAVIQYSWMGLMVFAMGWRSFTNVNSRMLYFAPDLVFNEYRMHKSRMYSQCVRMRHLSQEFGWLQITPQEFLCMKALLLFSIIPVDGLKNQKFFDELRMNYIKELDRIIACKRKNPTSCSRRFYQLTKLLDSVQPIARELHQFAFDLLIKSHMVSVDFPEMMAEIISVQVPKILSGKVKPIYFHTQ
Method: (§1) Degradation of Androgen Receptor (AR) protein in human prostate cancer cell lines (MDA-PCa-2b (AR T878A/L702H), LNCaP (AR T878A), VCaP (AR wild type and amplified) 22RV1 (AR H875Y) and PC3 (AR negative control)) treated with AR PROTACs was quantified using immunofluorescence. Prostate cancer cells were plated (MDA-PCa-2b, and VCaP 16,000 cells/well; LNCaP and 22RV1 32,000 cells/well, and PC3 8,000 cells/well) in an optical bottom 96-well cell culture plate and allowed to attach overnight. The prostate cancer cell lines were treated for 16 hours with a 10-point 3-fold dilution series (dose range=0.02 nM to 333 nM). PC3 is included as an AR negative control and not treated with compound. Cells are fixed and permeabilized with 4% formaldehyde, blocked with 10% goat serum in immunofluorescence (IF) buffer (130 mM NaCl, 7 mM Na2HPO4, 3.5 mM NaH2PO4, 7.7 mM NaN3, 0.1% BSA, 0.2% Triton X, 0.05% Tween 20) prior to overnight incubation with rabbit antibody specific for C terminus of AR (commercially available from RevMaB Biosciences). Following washes with IF buffer, cells were incubated with fluorescent secondary antibody (Goat anti-rabbit Alexa 647; commercially available from Invitrogen) and Hoechst nuclear stain (commercially available from Themo Scientific) prior to quantification of nuclear AR levels via Opera Phenix high-content fluorescent imager using a 40× water objective. Image analysis was performed with Harmony software.
(§2) The averaged nuclear Alexa 647 median fluorescence intensity (MFI) of PC3 cells is subtracted from the nuclear Alexa 647 MFI of PROTAC treated and DMSO control treated cells. % AR remaining is calculated for PROTAC treatments as a percent of the DMSO control (MFI PROTAC treated/MFI DMSO control treated)*100). DC50 and the Dmax values, were obtained from these normalised values fitted with a 4-parameter sigmoidal response curve (Xlfit software). The DC50 is the interpolated concentration of PROTAC corresponding to 50% of the protein being degraded, and the Dmax parameter is the maximum experimentally observed degradation.

[2] = target: T2, Androgen Receptor, VCaP (AR wild type and amplified) (Homo sapiens, UniProt P10275); assay: Androgen Receptor Degradation-Imaging Assay, VCaP cell line; assay type: cell-based; settings: 16 hours treatment, maximum observed degradation
T2 construct: endogenous in cells; host or cells: VCaP
T2 sequence (P10275 1-920): T1 sequence (P10275 1-920 T878A) with A878T
Method: as §1, §2

[3] = target: T3, Androgen Receptor, MDA-PCa-2b (AR T878A/L702H) (Homo sapiens, UniProt P10275, L702H/T878A); assay: Androgen Receptor Degradation-Imaging Assay, MDA-PCa-2b cell line; assay type: cell-based; settings: 16 hours treatment, maximum observed degradation
T3 construct: host or cells: MDA-PCa-2b
T3 sequence (P10275 1-920 L702H/T878A): T1 sequence (P10275 1-920 T878A) with L702H
Method: as §1, §2

[4] = Systemic exposure following oral administration in the rat; settings: for AUC0-t: 72 hours sampling; for AUC0-t / Cmax / Dose Normalised AUC0-t / Tmax: mean±SD (n=3); for *Estimated Bioavailability: dose normalised AUC0-t against an IV dose of 0.5 mg/kg
Method: Systemic exposure of various forms of N-((1r,3r)-3-(4-cyano-3-methoxyphenoxy)-2,2,4,4-tetramethylcyclobutyl)-4-(4-((4-(4-(2,4-dioxotetrahydropyrimidin-1(2H)-yl)-1H-pyrazolo[4,3-c]pyridin-1-yl)piperidin-1-yl)methyl)piperidin-1-yl)-3-fluorobenzamide were assessed following oral administration of 30 mg/kg of a suspension formulation (1% methylcellulose (aq)) or following oral administration of 35 mg/kg of a suspension formulation (100% PEG400) in the male Wistar Han rat. […] The sampling period was 72 hours, and the data is reported in the attached table as mean±SD (n=3).

[5] = 30 mg/kg in 1% methylcellulose (aq.), male Wistar Han rat, 30 mg/kg
[6] = 35 mg/kg in 100% PEG400, male Wistar Han rat, 35 mg/kg

Dmax [1]	Dmax [2]	Dmax [3]	AUC0-t [4, 5]	Cmax [4, 5]	Dose Normalised AUC0-t [4, 5]	Tmax [4, 5]	*Estimated Bioavailability ([4]; 30 mg/kg in 1% methylcellulose (aq.), rat)	AUC0-t [4, 6]	Cmax [4, 6]	Dose Normalised AUC0-t [4, 6]	Tmax [4, 6]	*Estimated Bioavailability ([4]; 35 mg/kg in 100% PEG400, rat)	SMILES
≥ 80%	≥ 80%	≥ 80%	–	–	–	–	–	–	–	–	–	–	COc1cc(O[C@H]2C(C)(C)[C@H](NC(=O)c3ccc(N4CCC(CN5CCC(n6ccc7c(N8CCC(=O)NC8=O)nccc76)CC5)CC4)c(F)c3)C2(C)C)ccc1C#N [Example 17, N-((1r,3r)-3-(4-Cyano-3-methoxyphenoxy)-2,2,4,4-tetramethylcyclobutyl)-4-(4-((4-(4-(2,4-dioxotetrahydropyrimidin-1(2H)-yl)-1H-pyrrolo[3,2-c]pyridin-1-yl)piperidin-1-yl)methyl)piperidin-1-yl)-3-fluorobenzamide]
–	–	–	4380 ± 1450 ng·h/mL	185 ± 76 ng/mL	148 ± 49 (ng · h/mL)/(mg/kg	7.3 ± 1.2 h	16%	10700 ± 3370 ng·h/mL	420 ± 123 ng/mL	309 ± 98 (ng · h/mL)/(mg/kg	9.3 ± 2.3 h	33%	COc1cc(O[C@H]2C(C)(C)[C@H](NC(=O)c3ccc(N4CCC(CN5CCC(n6ncc7c(N8CCC(=O)NC8=O)nccc76)CC5)CC4)c(F)c3)C2(C)C)ccc1C#N [Crystalline API, N-((1r,3r)-3-(4-cyano-3-methoxyphenoxy)-2,2,4,4-tetramethylcyclobutyl)-4-(4-((4-(4-(2,4-dioxotetrahydropyrimidin-1(2H)-yl)-1H-pyrazolo[4,3-c]pyridin-1-yl)piperidin-1-yl)methyl)piperidin-1-yl)-3-fluorobenzamide]
